Measurements taken from US20090054421A1, “Pyrimidothiophene Compounds Having HSP90 Inhibitory Activity” (Vernalis R & D Limited, priority 2005, published 2009).

target: T1, human full-length HSP90 (Homo sapiens, UniProt P08238); assay: Fluorescence polarization assay (competitive displacement of fluorescein-labelled probe from HSP90); assay type: binding; details: activity range A or B
T1 construct: E. coli expressed human full-length HSP90 protein, purified >95%; made in house; host or cells: E. coli
Text: Fluorescence Polarization Assay
Fluorescence polarization {also known as fluorescence anisotropy} measures the rotation of a fluorescing species in solution, where the larger molecule the more polarized the fluorescence emission. When the fluorophore is excited with polarized light, the emitted light is also polarized. The molecular size is proportional to the polarization of the fluorescence emission.
The fluoroscein-labelled probe—
binds to HSP90 {full-length human, full-length yeast or N-terminal domain HSP90} and the anisotropy {rotation of the probe:protein complex} is measured.
Test compound is added to the assay plate, left to equilibrate and the anisotropy measured again. Any change in anisotropy is due to competitive binding of compound to HSP90, thereby releasing probe.
Chemicals are of the highest purity commercially available and all aqueous solutions are made up in AR water. • 1) Costar 96-well black assay plate #3915 • 2) Assay buffer of (a) 100 mM Tris pH7.4; (b) 20 mM KCl; (c) 6 mM MgCl2. Stored at room temperature. • 3) BSA (bovine serum albumen) 10 mg/ml (New England Biolabs # B9001S) • 4) 20 mM probe in 100% DMSO stock concentration. Stored in the dark at RT. Working concentration is 200 nM diluted in AR water and stored at 4° C., Final concentration in assay 80 nM. • 5) E. coli expressed human full-length HSP90 protein, purified >95% (see, e.g., Panaretou et al., 1998) and stored in 50 μL aliquots at −80° C.
• 1) Add 100 μl 1× buffer to wells 11A and 12A (=FP BLNK) • 2) Prepare assay mix—all reagents are kept on ice with a lid on the bucket as the probe is light-sensitive.
• 3) Aliquot 100 μl assay mix to all other wells • 4) Seal plate and leave in dark at room temp for 20 minutes to equilibrate Compound Dilution Plate—1×3 dilution series • 1) In a clear 96-well v-bottom plate—{# VWR 007/008/257} add 10 μl 100% DMSO to wells B1 to H11 • 2) To wells A1 to A11 add 17.5 μl 100% DMSO • 3) Add 2.5 μl cpd to A1. This gives 2.5 mM {50×} stock cpd—assuming cpds 20 mM. • 4) Repeat for wells A2 to A10. Control in columns 11 and 12. • 5) Transfer 5 μl from row A to row B—not column 12. Mix well. • 6) Transfer 5 μl from row B to row C. […] In column 11 {provides standard curve} only add compound B11-H11. Add 2 μl of 100 mM standard cpd to wells B12-H12 {is positive control} • 13) The Z′ factor is calculated from zero controls and positive wells. It typically gives a value of 0.7-0.9.
The compounds tested in the above assay were assigned to one of two activity ranges, namely A=<10 μM; B=>10 μM, and those assignments are reported above.

T1 sequence (P08238 whole entry): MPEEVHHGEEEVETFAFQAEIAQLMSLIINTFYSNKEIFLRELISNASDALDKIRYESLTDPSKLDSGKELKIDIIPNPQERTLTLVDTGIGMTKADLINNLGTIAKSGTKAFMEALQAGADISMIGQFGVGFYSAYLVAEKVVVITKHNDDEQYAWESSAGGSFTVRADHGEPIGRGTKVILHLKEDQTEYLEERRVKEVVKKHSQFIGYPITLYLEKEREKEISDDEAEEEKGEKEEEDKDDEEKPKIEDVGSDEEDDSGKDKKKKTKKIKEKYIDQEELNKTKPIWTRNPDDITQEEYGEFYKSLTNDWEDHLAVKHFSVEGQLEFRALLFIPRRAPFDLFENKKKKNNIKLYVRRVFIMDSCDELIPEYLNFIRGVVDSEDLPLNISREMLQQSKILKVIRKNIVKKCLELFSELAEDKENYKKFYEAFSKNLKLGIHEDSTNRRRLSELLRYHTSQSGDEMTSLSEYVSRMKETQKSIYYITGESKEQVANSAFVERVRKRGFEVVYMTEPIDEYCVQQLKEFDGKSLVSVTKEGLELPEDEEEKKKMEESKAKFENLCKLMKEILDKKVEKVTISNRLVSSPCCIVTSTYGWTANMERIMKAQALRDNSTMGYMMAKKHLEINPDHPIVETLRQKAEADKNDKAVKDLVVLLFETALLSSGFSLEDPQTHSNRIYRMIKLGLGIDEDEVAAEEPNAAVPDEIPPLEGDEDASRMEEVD

IC50	Structure (SMILES)
< 10 µM	CCN(CC)CCON=C(c1ccc2c(c1)OCO2)c1nc(N)nc2sc(C(=O)NC(C)(C)C)cc12 [Example 55]
< 10 µM	Nc1nc(C(=NOCCN2CCCC2)c2ccc3c(c2)OCO3)c2cc(C(=O)NC3CC3)sc2n1 [Example 60]
> 10 µM	CCN(CC)CCON=C(c1ccc2c(c1)OCO2)c1nc(N)nc2sc(C(=O)NCCN(C)C)cc12 [Example 65]
< 10 µM	CCNC(=O)c1cc2c(C(=NOCCN3CCCC3=O)c3ccc(-n4cccn4)cc3)nc(N)nc2s1 [Example 67]
> 10 µM	CCNC(=O)c1cc2c(C(=NOCCN3CCCC3)c3ccc(-n4cccc4)cc3)nc(N)nc2s1 [Example 68]
> 10 µM	CCNC(=O)c1cc2c(C(=NOCCN3CCCC3)c3ccc(-n4cccn4)cc3)nc(N)nc2s1 [Example 69]
> 10 µM	CCNC(=O)c1cc2c(C(=NOCCN(CC)CC)c3ccc(-n4cccc4)cc3)nc(N)nc2s1 [Example 70]
> 10 µM	CCNC(=O)c1cc2c(C(=NOCCN3CCCC3=O)c3ccc(-n4cccc4)cc3)nc(N)nc2s1 [Example 71]
< 10 µM	CCNC(=O)c1cc2c(C(=NOCCN3CCCC3)c3ccc(N4CCCC4=O)cc3)nc(N)nc2s1 [Example 72]
> 10 µM	CCNC(=O)c1cc2c(C(=NOCCN(CC)CC)c3ccc(N4CCCC4=O)cc3)nc(N)nc2s1 [Example 73]
< 10 µM	CCN(CC)CCON=C(c1ccc2c(c1)OCO2)c1nc(N)nc2sc(C(=O)NCC(F)(F)F)cc12 [Example 74]
< 10 µM	CCNC(=O)c1cc2c(C(=NOCCN3CCCC3=O)c3ccc(N4CCCC4=O)cc3)nc(N)nc2s1 [Example 77]

The next lines start with the molecule.

Structure (SMILES)	IC50
CC(C)(C)NC(=O)c1cc2c(C(=NOCCN3CCCC3=O)c3ccc4c(c3)OCO4)nc(N)nc2s1 [Example 58]	< 10 µM
CCN(CC)CCON=C(c1ccc2c(c1)OCO2)c1nc(N)nc2sc(C(=O)NC3CC3)cc12 [Example 59]	< 10 µM
Nc1nc(C(=NOCCN2CCCC2=O)c2ccc3c(c2)OCO3)c2cc(C(=O)NC3CC3)sc2n1 [Example 61]	< 10 µM
CCNC(=O)c1cc2c(C(=NOCCN(CC)CC)c3ccc(OC)c(OC)c3)nc(N)nc2s1 [Example 62]	< 10 µM
CN(C)CCNC(=O)c1cc2c(C(=NOCCN3CCCC3)c3ccc4c(c3)OCO4)nc(N)nc2s1 [Example 63]	> 10 µM
CN(C)CCNC(=O)c1cc2c(C(=NOCCN3CCCC3=O)c3ccc4c(c3)OCO4)nc(N)nc2s1 [Example 64]	> 10 µM
Nc1nc(C(=NOCCN2CCCC2)c2ccc3c(c2)OCO3)c2cc(C(=O)NCC(F)(F)F)sc2n1 [Example 75]	< 10 µM
Nc1nc(C(=NOCCN2CCCC2=O)c2ccc3c(c2)OCO3)c2cc(C(=O)NCC(F)(F)F)sc2n1 [Example 76]	< 10 µM
CCNC(=O)c1cc2c(C(=NO)c3ccc(N4CCCC4=O)cc3)nc(N)nc2s1 [Example 78]	< 10 µM
CCNC(=O)c1cc2c(C(=NO)c3ccc(-n4cccc4)cc3)nc(N)nc2s1 [Example 80]	< 10 µM
CCNC(=O)c1cc2c(C(=NO)c3ccc(-n4cccn4)cc3)nc(N)nc2s1 [Example 81]	< 10 µM
